Source: US9237750B2, “Ornidazole and related compounds for use as herbicides” (RAMOT AT TEL-AVIV UNIVERSITY LTD., priority 2012, dated 2016)

What was measured:
Anabaena PCC7120 [1] = assay: Net O2 exchange (photosynthesis and respiration), O2 electrode; format: cell-based, Anabaena PCC7120 (Cyanobacteria)
Protocol: (§1) The cyanobacterium Anabaena PCC7120 was grown in BG-11 medium as was previously described (Marcus Y, et al., 2005. J Bacteriol 187, 4222-4228). The green eukaryotic alga Dunaliella salina was grown on a medium described by Ben-Amotz and Avron (Ben-Amotz A and Avron M 1983. Plant Physiol 72, 593-597), under 20 μmol photons m^−2 sec^−1 at 30° C. The aquatic plant Lemna was collected from an open pond at the Botanical garden of Tel Aviv University. Seedlings of Avena sterilis were grown in pots in a greenhouse. The marine diatom Phaeodactylum tricornutum was grown as described in Haimovich-Dayan et al. (Haimovich-Dayan M. et al. 2012. New Phytol 195:177-185).
(§2) The rate of net O2 exchange was determined using a Clark-type O2 electrode (Rank Brothers Ltd, UK). Fluorescent measurements (quantum yield, photochemical and non photochemical quenching) were determined using a modulated fluorometer (PAM, Walz, Germany) as described by Schreiber et al. (Schreiber U et al., 1986. fluorometer. Photosynth Res 10, 51-62) and Snir et al. (Snir A, et al., 2006. Photosynth Res 90, 233-242).
(§3) The algae Anabaena PCC7120 (Cyanobacteria), Dunaliella salina (Chlorophyta) and Phaeodactylum tricornutum (Diatoms) were each grown in its suitable medium as described hereinabove towards the mid logarithmic phase. 1 mM Ornidazole was then added to the medium for 5 min, and respiration and photosynthesis were measured for at least 10 min.
The effect of Ornidazole on the rate of photosynthesis of Anabaena was also determined. The algae were grown under various light intensities and saturating inorganic carbon (Ci) concentration, or under various Ci concentrations and saturating irradiance.

Dunaliella salina = assay: as above; format: cell-based, Dunaliella salina (Chlorophyta)
Protocol: as §1, §2, §3

Anabaena PCC7120 [2] = assay: Biodegradation in BG-11 medium in the presence of Anabaena cells (LC-MS); conditions: 0.1 mM, in the presence of cyanobacteria
Protocol: Ornidazole (molecular mass 220 and 222 due to two isotopes of chlorine) or degradation products were sought by LC-MS. The chromatograms of samples from the first and fourth days are shown in FIG. 7B and FIG. 7C, respectively. The retention time and molecular mass of the isolated molecules are designated.
The concentrations of Ornidazole and its degradation product in the medium were determined during the growth of the cyanobacterium Anabaena PCC7120 and in media lacking cyanobacteria in the dark or under illumination. Ornidazole at 0.1 mM concentration was added to three growth tubes containing BG-11 medium: one growth tube was kept in the dark, the second under light conditions of 60 μmol photons m^−2 sec^−1 and the third tube, to which Anabaena cells were added, was also kept under similar light conditions. Samples from each tube were taken every day, separated on a C18 reverse phase HPLC column, and Ornidazole (molecular mass 220 and 222 due to two isotopes of chlorine) or degradation products were sought by LC-MS. A degradation product of molecular mass 184, identified as C7H9N3O3, was found in all three tubes.

[3] = Anabaena PCC7120, 1 mM Ornidazole added for 5 min
[4] = Dunaliella salina, 1 mM Ornidazole added for 5 min

SMILES: Cc1ncc([N+](=O)[O-])n1CC(O)CCl (stereo not drawn) [Ornidazole, 1-chloro-3-(2-methyl-5-nitro-1H-imidazol-1-yl)propan-2-ol]
- Photosynthesis (Anabaena PCC7120 [1]; [3]): −3.7 μmol O2 mg^−1 chl h^−1
- Respiration (Anabaena PCC7120 [1]; [3]): −26.5 μmol O2 mg^−1 chl h^−1
- inhibition at 1000 µM (Anabaena PCC7120 [1]; Anabaena, 1 mM, read-out: inhibition of respiration rate): 30 to 35%
- effect on photosynthesis (Anabaena PCC7120 [1]; Anabaena, higher concentrations (than 1 mM) or longer incubation time): abolished photosynthesis
- effect on photosynthetic rate (Anabaena PCC7120 [1]; limiting irradiance): inhibited the photosynthetic rate to a lesser extent
- effect on photosynthetic rate (Anabaena PCC7120 [1]; saturating irradiance at any Ci concentration): concentration-dependent decrease in the photosynthetic rate
- Photosynthesis (Dunaliella salina; [4]): 17.88 μmol O2 mg^−1 chl h^−1
- Respiration (Dunaliella salina; [4]): −3.13 μmol O2 mg^−1 chl h^−1
- inhibition at 1000 µM (Dunaliella salina; Dunaliella salina, Dunaliella, 1 mM, read-out: inhibition of respiration rate): 30 to 35%
- effect on photosynthesis (Dunaliella salina; Dunaliella, higher concentrations (than 1 mM) or longer incubation time): abolished photosynthesis
- Ornidazole remaining, of its initial concentration (Anabaena PCC7120 [2]; after four days of incubation): 10%
- Ornidazole detection in medium (Anabaena PCC7120 [2]; after seven days): could no longer be detected
